Legend:
[1] = molecular target: Muscarinic acetylcholine receptor M1 (Homo sapiens) (UniProt P11229); settings: Compound concentration 10.0 uM
[2] = molecular target: Cyclin-dependent kinase 7 (Homo sapiens) (UniProt P50613); settings: Compound concentration 1000.0 nM
[3] = molecular target: Serine/threonine-protein kinase VRK2 (Homo sapiens) (UniProt Q86Y07); settings: Compound concentration 1000.0 nM
[4] = molecular target: T1, MAP/microtubule affinity-regulating kinase 4 (Homo sapiens) (UniProt Q96L34); settings: Compound concentration 1000.0 nM
T1 sequence (whole entry): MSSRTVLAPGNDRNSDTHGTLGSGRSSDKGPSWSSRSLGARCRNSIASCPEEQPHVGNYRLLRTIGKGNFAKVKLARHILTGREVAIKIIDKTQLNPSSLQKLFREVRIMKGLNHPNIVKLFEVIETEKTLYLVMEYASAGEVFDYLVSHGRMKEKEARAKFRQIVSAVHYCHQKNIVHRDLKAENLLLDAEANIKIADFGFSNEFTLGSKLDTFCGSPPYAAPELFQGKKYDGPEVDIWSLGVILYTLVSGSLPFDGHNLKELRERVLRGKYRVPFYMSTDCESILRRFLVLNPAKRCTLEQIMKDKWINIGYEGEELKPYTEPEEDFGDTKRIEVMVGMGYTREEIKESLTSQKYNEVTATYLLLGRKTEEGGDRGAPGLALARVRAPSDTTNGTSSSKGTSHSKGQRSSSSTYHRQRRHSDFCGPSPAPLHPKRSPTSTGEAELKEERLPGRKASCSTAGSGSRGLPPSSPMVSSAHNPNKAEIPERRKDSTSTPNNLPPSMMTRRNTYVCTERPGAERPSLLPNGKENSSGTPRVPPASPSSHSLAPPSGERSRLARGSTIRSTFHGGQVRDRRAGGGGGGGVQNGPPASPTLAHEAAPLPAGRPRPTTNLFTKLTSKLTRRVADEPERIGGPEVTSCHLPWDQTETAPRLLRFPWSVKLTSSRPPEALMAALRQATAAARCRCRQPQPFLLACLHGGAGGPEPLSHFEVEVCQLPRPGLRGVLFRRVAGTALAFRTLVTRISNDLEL

[5] = molecular target: T2, Serine/threonine-protein kinase Chk1 (Homo sapiens) (UniProt O14757); settings: Compound concentration 1000.0 nM
T2 sequence (whole entry): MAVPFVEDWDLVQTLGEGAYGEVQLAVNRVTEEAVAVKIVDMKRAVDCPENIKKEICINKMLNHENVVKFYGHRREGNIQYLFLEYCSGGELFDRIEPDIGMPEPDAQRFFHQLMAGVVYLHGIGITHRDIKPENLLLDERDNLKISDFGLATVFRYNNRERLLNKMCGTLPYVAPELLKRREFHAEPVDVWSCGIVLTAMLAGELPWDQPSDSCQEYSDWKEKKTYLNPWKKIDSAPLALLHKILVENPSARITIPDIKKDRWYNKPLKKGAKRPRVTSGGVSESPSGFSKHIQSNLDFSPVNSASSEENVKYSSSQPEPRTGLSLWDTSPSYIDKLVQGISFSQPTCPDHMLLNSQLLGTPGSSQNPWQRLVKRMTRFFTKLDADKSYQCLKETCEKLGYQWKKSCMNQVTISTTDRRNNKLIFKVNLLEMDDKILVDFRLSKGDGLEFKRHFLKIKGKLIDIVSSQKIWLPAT

[6] = molecular target: Fibroblast growth factor receptor 2 (Homo sapiens) (UniProt P21802); settings: Compound concentration 1000.0 nM
[7] = molecular target: Serine/threonine-protein kinase Nek10 (Homo sapiens) (UniProt Q6ZWH5); settings: Compound concentration 1000.0 nM
[8] = molecular target: Casein kinase I isoform epsilon (Homo sapiens) (UniProt P49674); settings: Compound concentration 1000.0 nM
[9] = molecular target: Serine/threonine-protein kinase PLK4 (Homo sapiens) (UniProt O00444); settings: Compound concentration 1000.0 nM
[10] = molecular target: Ribosomal protein S6 kinase alpha-1 (Homo sapiens, UniProt Q15418); settings: Compound concentration 1000.0 nM
[11] = molecular target: T3, Serine/threonine-protein kinase DCLK3 (Homo sapiens) (UniProt Q9C098); settings: Compound concentration 1000.0 nM
T3 sequence (whole entry): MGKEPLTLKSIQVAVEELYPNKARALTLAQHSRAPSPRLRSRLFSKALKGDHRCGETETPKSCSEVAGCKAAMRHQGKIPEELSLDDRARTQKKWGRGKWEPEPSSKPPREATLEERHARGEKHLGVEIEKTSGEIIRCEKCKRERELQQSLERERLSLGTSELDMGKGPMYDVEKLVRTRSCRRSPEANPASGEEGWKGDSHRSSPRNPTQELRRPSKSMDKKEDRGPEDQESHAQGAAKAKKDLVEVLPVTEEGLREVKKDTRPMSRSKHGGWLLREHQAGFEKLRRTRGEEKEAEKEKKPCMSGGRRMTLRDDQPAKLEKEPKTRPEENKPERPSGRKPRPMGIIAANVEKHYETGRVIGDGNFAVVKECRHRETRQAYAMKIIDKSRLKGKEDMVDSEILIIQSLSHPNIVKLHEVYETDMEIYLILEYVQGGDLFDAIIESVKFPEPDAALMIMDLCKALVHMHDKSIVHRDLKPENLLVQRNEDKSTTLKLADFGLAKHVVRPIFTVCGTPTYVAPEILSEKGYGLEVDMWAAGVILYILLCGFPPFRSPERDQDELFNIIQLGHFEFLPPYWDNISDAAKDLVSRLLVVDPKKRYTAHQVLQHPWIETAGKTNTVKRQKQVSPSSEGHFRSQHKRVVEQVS

[12] = molecular target: Phosphatidylinositol 4,5-bisphosphate 3-kinase catalytic subunit delta isoform (Homo sapiens) (UniProt O00329); settings: Compound concentration 1000.0 nM
[13] = molecular target: Macrophage colony-stimulating factor 1 receptor (Homo sapiens) (UniProt P07333); settings: Compound concentration 1000.0 nM
[14] = molecular target: Ribosomal protein S6 kinase alpha-2 (Homo sapiens, UniProt Q15349); settings: Compound concentration 1000.0 nM
[15] = test system: Tyrosine-protein kinase ABL1 (Homo sapiens), P00519 [M351T]; settings: Compound concentration 1000.0 nM

Sequence of Casein kinase I isoform epsilon (Homo sapiens) (P49674 whole entry, looked up, canonical isoform): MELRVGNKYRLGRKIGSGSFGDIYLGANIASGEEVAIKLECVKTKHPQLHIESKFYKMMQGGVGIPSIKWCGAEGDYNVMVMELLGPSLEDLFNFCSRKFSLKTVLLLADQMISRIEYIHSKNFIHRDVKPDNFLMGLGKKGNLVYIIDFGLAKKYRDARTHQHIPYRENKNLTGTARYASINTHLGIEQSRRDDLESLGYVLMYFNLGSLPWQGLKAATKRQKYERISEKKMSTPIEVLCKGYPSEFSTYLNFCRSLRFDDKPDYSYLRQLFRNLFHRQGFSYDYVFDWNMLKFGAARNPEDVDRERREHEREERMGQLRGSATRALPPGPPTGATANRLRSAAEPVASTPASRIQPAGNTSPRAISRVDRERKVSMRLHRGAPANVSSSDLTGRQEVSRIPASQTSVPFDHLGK
Sequence of Serine/threonine-protein kinase VRK2 (Homo sapiens) (Q86Y07 whole entry): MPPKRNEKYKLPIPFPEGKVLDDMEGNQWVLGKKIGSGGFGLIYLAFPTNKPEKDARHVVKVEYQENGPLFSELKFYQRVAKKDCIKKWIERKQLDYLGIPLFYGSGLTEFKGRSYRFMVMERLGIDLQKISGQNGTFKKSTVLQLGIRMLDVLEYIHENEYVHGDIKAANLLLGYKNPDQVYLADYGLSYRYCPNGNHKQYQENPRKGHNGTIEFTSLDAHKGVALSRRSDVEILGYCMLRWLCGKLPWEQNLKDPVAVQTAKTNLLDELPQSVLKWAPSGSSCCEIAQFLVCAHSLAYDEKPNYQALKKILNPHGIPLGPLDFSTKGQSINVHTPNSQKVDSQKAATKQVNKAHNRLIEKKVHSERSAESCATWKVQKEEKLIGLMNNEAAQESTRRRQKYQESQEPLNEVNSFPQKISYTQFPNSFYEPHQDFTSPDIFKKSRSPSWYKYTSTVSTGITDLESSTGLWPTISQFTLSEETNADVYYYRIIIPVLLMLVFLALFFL
Sequence of Ribosomal protein S6 kinase alpha-2 (Q15349 whole entry): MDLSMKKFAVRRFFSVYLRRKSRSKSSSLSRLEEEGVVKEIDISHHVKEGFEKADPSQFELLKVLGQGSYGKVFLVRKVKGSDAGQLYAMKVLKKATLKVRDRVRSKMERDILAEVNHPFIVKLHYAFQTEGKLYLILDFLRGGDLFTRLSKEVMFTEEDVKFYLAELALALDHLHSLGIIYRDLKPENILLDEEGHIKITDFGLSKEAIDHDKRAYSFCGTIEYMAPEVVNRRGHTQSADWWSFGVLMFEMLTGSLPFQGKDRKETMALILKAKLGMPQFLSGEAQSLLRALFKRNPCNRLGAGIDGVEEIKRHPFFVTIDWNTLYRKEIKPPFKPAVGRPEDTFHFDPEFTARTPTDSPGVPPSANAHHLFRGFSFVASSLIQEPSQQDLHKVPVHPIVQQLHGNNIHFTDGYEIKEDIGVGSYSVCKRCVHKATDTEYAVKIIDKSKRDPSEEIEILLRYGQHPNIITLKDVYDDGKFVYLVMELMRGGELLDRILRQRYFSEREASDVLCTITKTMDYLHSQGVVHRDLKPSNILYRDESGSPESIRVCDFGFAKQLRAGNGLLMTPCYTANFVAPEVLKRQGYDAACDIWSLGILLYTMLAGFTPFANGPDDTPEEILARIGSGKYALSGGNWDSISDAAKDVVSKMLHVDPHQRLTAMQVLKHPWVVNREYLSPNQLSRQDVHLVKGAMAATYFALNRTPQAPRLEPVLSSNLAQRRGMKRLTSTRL
Sequence of Ribosomal protein S6 kinase alpha-1 (Q15418 whole entry): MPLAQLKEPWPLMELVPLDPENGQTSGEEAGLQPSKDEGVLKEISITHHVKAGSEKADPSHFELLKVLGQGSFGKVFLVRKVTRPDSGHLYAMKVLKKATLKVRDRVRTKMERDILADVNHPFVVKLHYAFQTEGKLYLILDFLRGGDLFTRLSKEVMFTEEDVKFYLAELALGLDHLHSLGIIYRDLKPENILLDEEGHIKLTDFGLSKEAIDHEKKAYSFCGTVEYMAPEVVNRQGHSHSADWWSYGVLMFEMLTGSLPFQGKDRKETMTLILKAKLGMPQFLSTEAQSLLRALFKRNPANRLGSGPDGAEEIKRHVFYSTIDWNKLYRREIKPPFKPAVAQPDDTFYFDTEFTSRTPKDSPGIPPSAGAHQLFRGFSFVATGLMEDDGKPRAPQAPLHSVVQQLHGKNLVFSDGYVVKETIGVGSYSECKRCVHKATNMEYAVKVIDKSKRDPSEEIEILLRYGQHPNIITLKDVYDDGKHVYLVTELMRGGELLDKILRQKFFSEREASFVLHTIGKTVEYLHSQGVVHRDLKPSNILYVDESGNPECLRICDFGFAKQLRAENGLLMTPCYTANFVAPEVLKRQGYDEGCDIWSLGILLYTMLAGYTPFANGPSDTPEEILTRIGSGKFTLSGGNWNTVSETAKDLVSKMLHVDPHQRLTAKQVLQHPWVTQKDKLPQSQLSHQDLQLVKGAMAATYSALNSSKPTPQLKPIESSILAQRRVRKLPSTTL
Sequence of Serine/threonine-protein kinase PLK4 (Homo sapiens) (O00444 whole entry): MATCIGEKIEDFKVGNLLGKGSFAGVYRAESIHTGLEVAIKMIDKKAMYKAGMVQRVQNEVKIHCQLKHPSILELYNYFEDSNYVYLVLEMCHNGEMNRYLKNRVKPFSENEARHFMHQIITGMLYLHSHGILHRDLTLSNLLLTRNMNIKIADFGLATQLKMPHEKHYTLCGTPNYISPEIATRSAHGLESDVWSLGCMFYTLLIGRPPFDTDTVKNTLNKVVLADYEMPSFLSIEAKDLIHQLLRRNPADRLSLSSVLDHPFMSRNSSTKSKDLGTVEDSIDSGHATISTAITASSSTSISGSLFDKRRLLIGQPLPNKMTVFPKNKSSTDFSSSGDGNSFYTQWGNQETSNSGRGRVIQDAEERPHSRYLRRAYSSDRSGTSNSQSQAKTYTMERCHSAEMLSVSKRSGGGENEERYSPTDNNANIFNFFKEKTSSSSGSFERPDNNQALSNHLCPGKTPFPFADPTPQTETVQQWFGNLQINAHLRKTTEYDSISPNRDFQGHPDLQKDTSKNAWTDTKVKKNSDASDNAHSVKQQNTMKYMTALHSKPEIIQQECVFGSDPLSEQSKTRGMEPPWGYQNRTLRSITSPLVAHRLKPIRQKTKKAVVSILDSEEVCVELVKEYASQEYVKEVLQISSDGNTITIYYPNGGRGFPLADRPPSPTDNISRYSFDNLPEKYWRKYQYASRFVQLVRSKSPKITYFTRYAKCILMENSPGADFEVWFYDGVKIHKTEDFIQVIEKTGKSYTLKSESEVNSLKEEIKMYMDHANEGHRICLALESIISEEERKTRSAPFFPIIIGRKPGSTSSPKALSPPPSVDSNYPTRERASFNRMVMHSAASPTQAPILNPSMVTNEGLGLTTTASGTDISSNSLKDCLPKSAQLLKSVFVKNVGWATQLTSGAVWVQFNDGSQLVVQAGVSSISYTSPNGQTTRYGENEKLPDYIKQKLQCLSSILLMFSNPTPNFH
Sequence of Phosphatidylinositol 4,5-bisphosphate 3-kinase catalytic subunit delta isoform (Homo sapiens) (O00329 whole entry, canonical isoform): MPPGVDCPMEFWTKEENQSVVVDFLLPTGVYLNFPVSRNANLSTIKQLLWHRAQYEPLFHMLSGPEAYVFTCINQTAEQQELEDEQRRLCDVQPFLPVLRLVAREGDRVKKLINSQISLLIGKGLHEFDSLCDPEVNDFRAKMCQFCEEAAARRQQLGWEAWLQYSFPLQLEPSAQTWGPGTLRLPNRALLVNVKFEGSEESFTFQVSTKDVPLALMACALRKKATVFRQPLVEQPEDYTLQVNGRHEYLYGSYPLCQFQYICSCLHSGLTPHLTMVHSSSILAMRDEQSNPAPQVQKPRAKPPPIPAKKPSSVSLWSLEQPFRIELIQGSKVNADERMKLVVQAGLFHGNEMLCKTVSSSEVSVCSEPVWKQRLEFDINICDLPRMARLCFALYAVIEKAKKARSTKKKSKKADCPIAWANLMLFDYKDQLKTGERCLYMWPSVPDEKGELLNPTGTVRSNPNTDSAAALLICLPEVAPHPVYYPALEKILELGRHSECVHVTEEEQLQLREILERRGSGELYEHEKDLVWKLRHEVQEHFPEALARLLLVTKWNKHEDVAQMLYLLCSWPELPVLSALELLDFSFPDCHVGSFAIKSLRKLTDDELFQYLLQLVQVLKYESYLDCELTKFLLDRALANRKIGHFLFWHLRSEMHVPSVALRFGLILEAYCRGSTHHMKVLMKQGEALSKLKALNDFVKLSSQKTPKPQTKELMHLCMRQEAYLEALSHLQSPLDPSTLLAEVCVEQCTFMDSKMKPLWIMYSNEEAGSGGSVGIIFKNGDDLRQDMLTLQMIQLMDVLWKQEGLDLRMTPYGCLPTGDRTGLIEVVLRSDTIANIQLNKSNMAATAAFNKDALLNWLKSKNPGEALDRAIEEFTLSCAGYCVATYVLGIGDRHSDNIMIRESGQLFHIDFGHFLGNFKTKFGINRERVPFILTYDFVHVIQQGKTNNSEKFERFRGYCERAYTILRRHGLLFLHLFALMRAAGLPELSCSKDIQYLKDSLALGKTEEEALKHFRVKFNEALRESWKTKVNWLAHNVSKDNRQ
Sequence of Cyclin-dependent kinase 7 (Homo sapiens) (P50613 whole entry): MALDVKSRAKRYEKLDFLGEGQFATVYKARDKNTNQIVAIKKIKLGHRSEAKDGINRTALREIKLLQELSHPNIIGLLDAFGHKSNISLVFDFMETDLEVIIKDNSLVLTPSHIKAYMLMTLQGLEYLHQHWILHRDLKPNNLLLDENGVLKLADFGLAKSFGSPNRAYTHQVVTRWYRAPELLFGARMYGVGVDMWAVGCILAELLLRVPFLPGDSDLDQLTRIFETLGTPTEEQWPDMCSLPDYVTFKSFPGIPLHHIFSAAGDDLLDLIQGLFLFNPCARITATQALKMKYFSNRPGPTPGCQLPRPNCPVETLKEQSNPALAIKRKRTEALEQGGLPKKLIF

Structure (SMILES) | inhibition [1] [%] | residual activity [2] [%] | residual activity [3] [%] | residual activity [4] [%] | residual activity [5] [%] | residual activity [6] [%] | residual activity [7] [%] | residual activity [8] [%] | residual activity [9] [%] | residual activity [10] [%] | residual activity [11] [%] | residual activity [12] [%] | residual activity [13] [%] | residual activity [14] [%] | residual activity [15] [%]
CCc1ccccc1C(=O)Nc1n[nH]c2c(C)c(F)c(C3C(C#N)=C(C)N(C)C(C)=C3C#N)cc12 [BAY-3827] | 2.81 | 90 | 100 | 51 | 91 | 83 | 100 | 100 | 100 | 100 | 82 | 90 | 100 | 0 | 99
CC1=C(C#N)C(c2ccc3c(c2)c(NC(=O)c2ccccc2C)nn3C)C(C#N)=C(C)N1 [BAY-974] | -1.37 | 58 | 72 | 94 | 81 | 97 | 90 | 100 | 100 | 100 | 89 | 71 | 99 | 83 | 94

From ChEMBL document CHEMBL4507319 (2021)
